Results on 42 molecules are retold here after US8481576B2 (Abbott GmbH & Co. KG, priority 2004, dated 2013).

In one assay the target is T1, h5-HT5A receptor (Homo sapiens, UniProt P47898).
T1 construct: expressed in transfected cells; host or cells: HEK293
In words: [3H]5-CT binding assay h5-HT5A. To be noted: membranes from HEK293 cells expressing h5-HT5A, 2.5 nM [3H]5-CT; read-out: Binding affinity 5-HT5A (Ki). The procedure, abridged: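 Membranes from HEK293 cells stably expressing h5-HT5A incubated with 2.5 nM [3H]5-CT and compound in 100 mM Tris-HCl pH 7.7, 1 mM EDTA, 75 min at 30° C. Nonspecific binding with 10 μM methiothepine; filtration and scintillation counting give Ki or IC50.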

In a further assay the target is HIV-1 RT (Human immunodeficiency virus type 1 group M subtype B, UniProt P03366). The conditions noted are these: Bioorg. Med. Chem. Lett. 2000 (10), 265-268; cited from earlier work.

T1 sequence (P47898 whole entry): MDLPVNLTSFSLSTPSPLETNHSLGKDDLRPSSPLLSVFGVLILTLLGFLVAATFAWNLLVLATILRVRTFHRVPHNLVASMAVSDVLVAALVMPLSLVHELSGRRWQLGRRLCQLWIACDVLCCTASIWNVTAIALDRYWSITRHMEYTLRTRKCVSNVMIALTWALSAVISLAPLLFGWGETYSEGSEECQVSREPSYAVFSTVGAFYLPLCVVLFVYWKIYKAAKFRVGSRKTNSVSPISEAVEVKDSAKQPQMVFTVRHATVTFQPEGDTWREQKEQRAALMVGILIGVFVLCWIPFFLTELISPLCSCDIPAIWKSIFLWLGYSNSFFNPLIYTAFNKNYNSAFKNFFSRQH

What is called Ki is the dissociation constant of the complex between target and ligand, obtained from inhibition or displacement. Turning to `COc1cccc(OC)c1CNC(=N)Nc1nc(C)co1` [Example 190, N-(2,6-dimethoxybenzyl)-N′-(4-methyl-1,3-oxazole-2-yl)guanidine acetate], the Ki at h5-HT5A receptor is less than 50 nM.
Still for that read-out and setting: as for `COc1cccc(OC)c1CNC(=N)Nc1nc(-c2ccc(F)cc2)c[nH]1` [Example 191, N-(2,6-dimethoxybenzyl)-N′-[4-(4-fluorophenyl)-1H-imidazole-2-yl]guanidine acetate], the figure is less than 50 nM; as for `CCOC(=O)c1csc(NC(=N)NCc2c(OC)cccc2OC)n1` [Example 192, Ethyl 2-{[[(2,6-dimethoxybenzyl)amino](imino)methyl]amino}-1,3-thiazole-4-carboxylate acetate], less than 50 nM.
Still for that read-out and setting: as for `C=CCNC(=O)c1csc(NC(=N)NCc2c(OC)cccc2OC)n1` [Example 193, N-allyl-2-{[[(2,6-dimethoxybenzyl)amino](imino)methyl]amino}-1,3-thiazole-4-carboxamide], the figure is less than 50 nM; as for `COc1cccc(OC)c1CNC(=N)Nc1nc(C(=O)NCc2ccccc2)cs1` [Example 194, N-benzyl-2-{[[(2,6-dimethoxybenzyl)amino](imino)methyl]amino}-1,3-thiazole-4-carboxamide], less than 50 nM.
The same measure, in the same setting: the value for `COc1cccc(Cl)c1CNC(=N)Nc1nc(-c2ccc(F)cc2)c[nH]1` [Example 195, N-(2-chlor-6-methoxybenzyl)-N′-[4-(4-fluorphenyl)-1H-imidazole-2-yl]guanidine acetate] was less than 50 nM.
`COc1cccc(OC)c1CNC(=N)Nc1nc(C(=O)NC(C)C)cs1` [Example 196, 2-{[[(2,6-dimethoxybenzyl)amino](imino)methyl]amino}-N-isopropyl-1,3-thiazole-4-carboxamide]: the inhibition constant Ki at h5-HT5A receptor was less than 50 nM.
As for `COc1ccccc1CNC(=N)Nc1nc(-c2ccccc2)co1` [Example 197, N-(2-methoxybenzyl)-N′-(4-phenyl-1,3-oxazole-2-yl)guanidine], the inhibitory constant (Ki) on h5-HT5A receptor lay in the range of 50 to 500 nM.
On the same count and under the same terms, the value for `COc1ccccc1CNC(=N)Nc1nc(-c2ccc(F)cc2)co1` [Example 198, N-[4-(4-fluorophenyl)-1,3-oxazole-2-yl]-N′-(2-methoxybenzyl)guanidine] was less than 50 nM; that for `COc1cccc(OC)c1CNC(=N)Nc1nc(-c2ccccc2)co1` [Example 199, N-(2,6-dimethoxybenzyl)-N′-(4-phenyl-1,3-oxazole-2-yl)guanidine] was less than 50 nM; that for `COc1ccccc1CNC(=N)Nc1cc(C(C)(C)C)[nH]n1` [Example 200, N-(5-tert-butyl-1H-pyrazole-3-yl)-N′-(2-methoxy-benzyl)-guanidine] was 50 to 500 nM.
Still for that read-out and setting: the value for `COc1ccccc1CNC(=N)Nc1cc(-c2ccccc2)[nH]n1` [Example 201, N-(2-methoxybenzyl)-N′-(5-phenyl-1H-pyrazole-3-yl)guanidine] was less than 50 nM.
Take `COc1cccc(OC)c1CNC(=N)Nc1cc(-c2ccccc2)[nH]n1` [Example 202, N-(2,6-dimethoxybenzyl)-N′-(5-phenyl-1H-pyrazole-3-yl)guanidine]: at h5-HT5A receptor, the inhibitory constant (Ki) is less than 50 nM.
On the same count and under the same terms, the value for `COc1cccc(OC)c1CNC(=N)Nc1cc[nH]n1` [Example 203, N-(2,6-dimethoxybenzyl)-N′-1H-pyrazole-3-ylguanidine] was less than 50 nM; that for `COc1cccc(OC)c1CNC(=N)Nc1cc(C(C)(C)C)[nH]n1` [Example 204, N-(5-tert-butyl-1H-pyrazole-3-yl)-N′-(2,6-dimethoxybenzyl)guanidine] was less than 50 nM; that for `COc1ccccc1CNC(=N)Nc1cc[nH]n1` [Example 205, N-(2-methoxybenzyl)-N′-1H-pyrazole-3-ylguanidine] was 50 to 500 nM.
For the molecule `COc1ccccc1CNC(=N)Nc1cc(-c2ccc(C)cc2)[nH]n1` [Example 206, N-(2-methoxybenzyl)-N′-[5-(4-methylphenyl)-1H-pyrazole-3-yl]guanidine], the Ki at h5-HT5A receptor is less than 50 nM.
Still for that read-out and setting: the value for `COc1cccc(OC)c1CNC(=N)Nc1cc(-c2ccc(C)cc2)[nH]n1` [Example 207, N-(2,6-dimethoxybenzyl)-N′-[5-(4-methylphenyl)-1H-pyrazole-3-yl]guanidine] was less than 50 nM; that for `COc1ccc(-c2cc(NC(=N)NCc3ccccc3OC)n[nH]2)cc1` [Example 208, N-(2-methoxybenzyl)-N′-[5-(4-methoxyphenyl)-1H-pyrazole-3-yl]guanidine] was less than 50 nM; that for `COc1ccc(-c2cc(NC(=N)NCc3c(OC)cccc3OC)n[nH]2)cc1` [Example 209, N-(2,6-dimethoxybenzyl)-N′-[5-(4-methoxyphenyl)-1H-pyrazole-3-yl]guanidine] was less than 50 nM.
Take `COc1cccc(F)c1CNC(=N)Nc1cc(C(C)(C)C)[nH]n1` [Example 210, N-(5-tert-butyl-1H-pyrazole-3-yl)-N′-(2-fluoro-6-methoxybenzyl)guanidine]: the Ki at h5-HT5A receptor was less than 50 nM.
For the molecule `COc1ccccc1CNC(=N)Nc1cc(-c2ccc(Cl)cc2)[nH]n1` [Example 211, N-[5-(4-chlorophenyl)-1H-pyrazole-3-yl]-N′-(2-methoxybenzyl)guanidine], the Ki at h5-HT5A receptor was less than 50 nM.
As for `COc1cccc(OC)c1CNC(=N)Nc1cc(-c2ccc(Cl)cc2)[nH]n1` [Example 212, N-[5-(4-chlorophenyl)-1H-pyrazole-3-yl]-N′-(2,6-dimethoxybenzyl)guanidine], the inhibition constant Ki at h5-HT5A receptor was less than 50 nM.
Still for that read-out and setting: the value for `COc1cccc(Cl)c1CNC(=N)Nc1cc(C(C)(C)C)[nH]n1` [Example 213, N-(5-tert-butyl-1H-pyrazole-3-yl)-N′-(2-chloro-6-methoxybenzyl)guanidine] was less than 50 nM; that for `COc1ccccc1CNC(=N)Nc1ccn(C)n1` [Example 214, N-(2-methoxybenzyl)-N′-(1-methyl-1H-pyrazole-3-yl)guanidine] was less than 50 nM.
On the same count and under the same terms, as for `COc1cccc(OC)c1CNC(=N)Nc1ccn(C)n1` [Example 215, N-(2,6-dimethoxybenzyl)-N′-(1-methyl-1H-pyrazole-3-yl)guanidine], the figure is less than 50 nM; as for `COc1cccc(C)c1CNC(=N)Nc1cc(C(C)(C)C)[nH]n1` [Example 216, N-(5-tert-butyl-1H-pyrazole-3-yl)-N′-(2-methoxy-6-methylbenzyl)guanidine], less than 50 nM; as for `COc1ccccc1CNC(=N)Nc1n[nH]cc1-c1ccccc1` [Example 217, N-(2-methoxybenzyl)-N′-(4-phenyl-1H-pyrazole-3-yl)guanidine], more than 500 nM.
Still for that read-out and setting: as for `COc1cccc(OC)c1CNC(=N)Nc1n[nH]cc1-c1ccccc1` [Example 218, N-(2,6-dimethoxybenzyl)-N′-(4-phenyl-1H-pyrazole-3-yl)guanidine], the figure is more than 500 nM.
With `COc1cccc(OC)c1CNC(=N)Nc1ccn(-c2ccccc2)n1` [Example 219, N-(2,6-dimethoxybenzyl)-N′-(1-phenyl-1H-pyrazole-3-yl)guanidine], the Ki at h5-HT5A receptor is less than 50 nM.
The same measure, in the same setting: the value for `COc1ccccc1CNC(=N)Nc1ccn(-c2ccccc2)n1` [Example 220, N-(2-methoxybenzyl)-N′-(1-phenyl-1H-pyrazole-3-yl)guanidine] was less than 50 nM.
On the same count and under the same terms, as for `COc1ccc(C(F)(F)F)cc1CNC(=N)Nc1nc(-c2ccccc2)cs1` [Example 221, N-[2-methoxy-5-(trifluoromethyl)benzyl]-N′-(4-phenyl-1,3-thiazole-2-yl)guanidine], the figure is more than 500 nM; as for `COc1cccc(OC)c1CNC(=N)Nc1nc2c(s1)CNCC2` [Example 223, N-(2,6-dimethoxybenzyl)-N′-(4,5,6,7-tetrahydro[1,3]thiazolo[5,4-c]pyridine-2-yl)guanidine], less than 50 nM; as for `COc1cccc(OC)c1CNC(=N)Nc1nc2c(s1)CN(C(C)=O)CC2` [Example 224, N-(5-acetyl-4,5,6,7-tetrahydro[1,3]thiazolo[5,4-c]pyridine-2-yl)-N′-(2,6-dimethoxybenzyl)guanidine], less than 50 nM.
`COc1cccc(OC)c1CNC(=N)Nc1nc2c(s1)CN(S(=O)(=O)c1ccccc1)CC2` [Example 225, N-(2,6-dimethoxybenzyl)-N′-[5-(phenylsulfonyl)-4,5,6,7-tetrahydro[1,3]thiazolo[5,4-c]pyridine-2-yl]guanidine]: the inhibition constant (Ki) at h5-HT5A receptor is less than 50 nM.
On the same count and under the same terms, as for `COc1cccc(OC)c1CNC(=N)Nc1nc2c(s1)CN(Cc1ccccc1)CC2` [Example 226, N-(5-benzyl-4,5,6,7-tetrahydro[1,3]thiazolo[5,4-c]pyridine-2-yl)-N′-(2,6-dimethoxybenzyl)guanidine], the figure is less than 50 nM.
With `COc1ccccc1CCNC(=N)Nc1nccs1` [N-[2-(2-methoxyphenyl)ethyl]-N′-1,3-thiazole-2-ylguanidine], the biological activity result on HIV-1 RT was “did not show any demonstrable biological activity”.
As for “Methyl-[2-({imino[(2-methoxybenzyl)amino]methyl}amino)-1,3-thiazole-4-yl]acetate [Example 47]”, the inhibitory constant (Ki) on h5-HT5A receptor is less than 50 nM.
Same read-out and setting: the value for “N-4H-chromeno[4,3-d][1,3]thiazole-2-yl-N′-(2,6-dimethoxybenzyl)guanidine [Example 222]” was less than 50 nM; that for “N-(2,6-dimethoxybenzyl)-N′-(5-methyl-4-phenyl-1,3-thiazole-2-yl)guanidine hydrobromide [Example 81]” was less than 50 nM; that for “N-(2-methoxybenzyl)-N′-1,3-thiazole-2-ylguanidine hydrochloride [Example 11]” was 50 to 500 nM.
Same read-out and setting: as for “N-[4-(2-{[[(2,6-dimethoxybenzyl)amino](imino)methyl]amino}-1,3-thiazole-4-yl)phenyl]acetamide acetate [Example 79]”, the figure is less than 50 nM.
